According to article PMC6155631, “Immobilized Trienzymatic System with Enhanced Stabilization for the Biotransformation of Lactose” (Molecules : A Journal of Synthetic Chemistry and Natural …, 2017):

Biological target: T1, β-galactosidase from Bacillus circulans (Biolacta N-5) (Niallia circulans, UniProt E5RWQ2)
T1 construct: gene bga; commercial Biolacta N-5 (Daiwa Kasei), partially purified; several isoforms, called monomeric
Test: batch hydrolysis, HPLC
Assay type: biochemical
Conditions: soluble enzyme together with P1 and P2; Mozzarella whey lactose, 50 °C, 6 h
Source text: batch hydrolysis, HPLC on β-galactosidase from Bacillus circulans (Biolacta N-5)

T1 sequence (E5RWQ2 24-1737): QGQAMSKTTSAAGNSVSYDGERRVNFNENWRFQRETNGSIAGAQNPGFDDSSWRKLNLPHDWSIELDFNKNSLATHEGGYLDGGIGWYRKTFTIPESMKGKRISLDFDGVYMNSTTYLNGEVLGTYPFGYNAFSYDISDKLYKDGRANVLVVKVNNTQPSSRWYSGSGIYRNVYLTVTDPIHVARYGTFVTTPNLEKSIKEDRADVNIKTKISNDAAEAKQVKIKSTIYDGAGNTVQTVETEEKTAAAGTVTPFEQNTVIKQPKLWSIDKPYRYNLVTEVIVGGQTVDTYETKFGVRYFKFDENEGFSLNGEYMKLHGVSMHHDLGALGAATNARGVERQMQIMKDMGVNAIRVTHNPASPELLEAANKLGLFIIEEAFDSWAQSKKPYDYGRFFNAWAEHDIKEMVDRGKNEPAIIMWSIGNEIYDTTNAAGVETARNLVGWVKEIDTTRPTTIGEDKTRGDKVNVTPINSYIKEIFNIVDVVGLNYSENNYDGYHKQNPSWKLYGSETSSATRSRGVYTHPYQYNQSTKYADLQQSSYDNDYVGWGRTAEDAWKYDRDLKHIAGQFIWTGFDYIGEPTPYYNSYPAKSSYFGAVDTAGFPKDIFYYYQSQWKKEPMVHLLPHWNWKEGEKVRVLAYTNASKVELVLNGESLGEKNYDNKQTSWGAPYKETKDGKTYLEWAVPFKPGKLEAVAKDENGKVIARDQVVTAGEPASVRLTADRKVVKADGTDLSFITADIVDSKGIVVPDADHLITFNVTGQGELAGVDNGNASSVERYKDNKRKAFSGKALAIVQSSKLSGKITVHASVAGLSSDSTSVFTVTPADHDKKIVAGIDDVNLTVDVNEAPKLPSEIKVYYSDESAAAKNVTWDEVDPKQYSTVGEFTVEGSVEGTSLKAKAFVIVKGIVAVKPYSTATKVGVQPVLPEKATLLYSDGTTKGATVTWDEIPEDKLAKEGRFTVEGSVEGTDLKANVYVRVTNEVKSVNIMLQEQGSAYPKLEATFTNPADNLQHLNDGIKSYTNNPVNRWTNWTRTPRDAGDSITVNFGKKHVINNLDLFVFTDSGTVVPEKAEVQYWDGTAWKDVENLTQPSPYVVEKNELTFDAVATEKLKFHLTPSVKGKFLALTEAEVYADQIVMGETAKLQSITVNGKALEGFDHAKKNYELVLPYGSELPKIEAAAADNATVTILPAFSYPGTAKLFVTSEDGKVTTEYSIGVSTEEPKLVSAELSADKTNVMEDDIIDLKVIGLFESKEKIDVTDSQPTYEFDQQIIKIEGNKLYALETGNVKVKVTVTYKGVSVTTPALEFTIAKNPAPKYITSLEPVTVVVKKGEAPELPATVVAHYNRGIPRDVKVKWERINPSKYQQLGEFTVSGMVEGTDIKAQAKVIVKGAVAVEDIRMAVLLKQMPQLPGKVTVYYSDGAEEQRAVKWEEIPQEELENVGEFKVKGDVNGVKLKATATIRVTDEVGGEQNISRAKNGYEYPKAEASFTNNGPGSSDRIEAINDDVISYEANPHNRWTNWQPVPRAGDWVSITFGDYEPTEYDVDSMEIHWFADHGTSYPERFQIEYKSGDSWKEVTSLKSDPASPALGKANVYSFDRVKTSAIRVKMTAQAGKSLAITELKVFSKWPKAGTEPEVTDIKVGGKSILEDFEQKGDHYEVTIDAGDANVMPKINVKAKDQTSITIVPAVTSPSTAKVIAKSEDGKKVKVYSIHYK

Lactolysis (%): 76 ± 1%
Structure (SMILES): OC[C@H]1O[C@@H](O[C@H]2[C@H](O)[C@@H](O)C(O)O[C@@H]2CO)[C@H](O)[C@@H](O)[C@H]1O (stereo partly shown) [lactose]
